Holding throughout (type): biochemical
One experiment deals with T1, PI3Kβ (Homo sapiens, UniProt P42338).
T1 construct: made in house
As to the kind of experiment: TR-FRET enzymatic activity assay, PI3Kβ. The conditions noted are these: Table 2a; same assay.

The next experiment deals with T2, PI3Kδ (Homo sapiens, UniProt O00329).
T2 construct: made in house
In words: TR-FRET enzymatic activity assay, PI3Kδ. As to conditions: Table 2a; same assay.

Another experiment deals with T3, PI3Kγ (Homo sapiens, UniProt P48736).
T3 construct: made in house
T3 sequence (P48736 whole entry): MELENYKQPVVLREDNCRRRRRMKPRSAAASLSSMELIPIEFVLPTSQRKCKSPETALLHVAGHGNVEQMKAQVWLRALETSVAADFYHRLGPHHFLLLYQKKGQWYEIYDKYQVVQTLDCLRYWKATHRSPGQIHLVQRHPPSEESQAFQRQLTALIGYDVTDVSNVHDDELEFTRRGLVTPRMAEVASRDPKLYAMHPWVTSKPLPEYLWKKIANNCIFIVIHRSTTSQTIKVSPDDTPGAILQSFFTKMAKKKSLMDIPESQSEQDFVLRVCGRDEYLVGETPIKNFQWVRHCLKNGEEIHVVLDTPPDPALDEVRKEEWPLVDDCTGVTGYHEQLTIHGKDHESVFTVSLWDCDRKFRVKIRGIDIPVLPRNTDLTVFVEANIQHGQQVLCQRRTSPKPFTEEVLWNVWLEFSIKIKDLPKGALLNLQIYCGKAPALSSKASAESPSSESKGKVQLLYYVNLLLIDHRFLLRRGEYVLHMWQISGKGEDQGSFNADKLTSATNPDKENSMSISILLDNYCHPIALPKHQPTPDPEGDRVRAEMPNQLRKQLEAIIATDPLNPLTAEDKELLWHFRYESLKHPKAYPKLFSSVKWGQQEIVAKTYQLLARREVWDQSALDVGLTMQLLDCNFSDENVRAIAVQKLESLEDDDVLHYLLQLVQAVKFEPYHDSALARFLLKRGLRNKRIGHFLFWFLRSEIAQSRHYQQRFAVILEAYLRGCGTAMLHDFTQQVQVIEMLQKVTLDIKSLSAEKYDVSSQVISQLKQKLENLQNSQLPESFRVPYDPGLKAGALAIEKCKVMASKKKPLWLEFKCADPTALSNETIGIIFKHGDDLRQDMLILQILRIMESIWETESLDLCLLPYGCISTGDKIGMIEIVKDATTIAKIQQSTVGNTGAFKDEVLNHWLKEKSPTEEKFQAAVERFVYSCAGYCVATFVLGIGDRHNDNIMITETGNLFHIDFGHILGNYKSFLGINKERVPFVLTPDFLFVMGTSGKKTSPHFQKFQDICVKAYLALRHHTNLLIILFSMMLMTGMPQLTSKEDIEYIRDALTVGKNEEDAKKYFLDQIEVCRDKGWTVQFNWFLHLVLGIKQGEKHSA
In words: TR-FRET enzymatic activity assay, PI3Kγ. The conditions noted are these: Table 2a; same assay; read-out: PI3Kγ IC50. A digest of the protocol: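 TR-FRET read-out of enzyme activity, run separately for each PI3K isoform.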

SMILES strings stand for the structures.

The results in this text go back to patent publication US10308639B2, “Phosphatidylinositol 3-kinase inhibitors” (Gilead Sciences, Inc., priority 2014, dated 2019).

T2 sequence (O00329 whole entry): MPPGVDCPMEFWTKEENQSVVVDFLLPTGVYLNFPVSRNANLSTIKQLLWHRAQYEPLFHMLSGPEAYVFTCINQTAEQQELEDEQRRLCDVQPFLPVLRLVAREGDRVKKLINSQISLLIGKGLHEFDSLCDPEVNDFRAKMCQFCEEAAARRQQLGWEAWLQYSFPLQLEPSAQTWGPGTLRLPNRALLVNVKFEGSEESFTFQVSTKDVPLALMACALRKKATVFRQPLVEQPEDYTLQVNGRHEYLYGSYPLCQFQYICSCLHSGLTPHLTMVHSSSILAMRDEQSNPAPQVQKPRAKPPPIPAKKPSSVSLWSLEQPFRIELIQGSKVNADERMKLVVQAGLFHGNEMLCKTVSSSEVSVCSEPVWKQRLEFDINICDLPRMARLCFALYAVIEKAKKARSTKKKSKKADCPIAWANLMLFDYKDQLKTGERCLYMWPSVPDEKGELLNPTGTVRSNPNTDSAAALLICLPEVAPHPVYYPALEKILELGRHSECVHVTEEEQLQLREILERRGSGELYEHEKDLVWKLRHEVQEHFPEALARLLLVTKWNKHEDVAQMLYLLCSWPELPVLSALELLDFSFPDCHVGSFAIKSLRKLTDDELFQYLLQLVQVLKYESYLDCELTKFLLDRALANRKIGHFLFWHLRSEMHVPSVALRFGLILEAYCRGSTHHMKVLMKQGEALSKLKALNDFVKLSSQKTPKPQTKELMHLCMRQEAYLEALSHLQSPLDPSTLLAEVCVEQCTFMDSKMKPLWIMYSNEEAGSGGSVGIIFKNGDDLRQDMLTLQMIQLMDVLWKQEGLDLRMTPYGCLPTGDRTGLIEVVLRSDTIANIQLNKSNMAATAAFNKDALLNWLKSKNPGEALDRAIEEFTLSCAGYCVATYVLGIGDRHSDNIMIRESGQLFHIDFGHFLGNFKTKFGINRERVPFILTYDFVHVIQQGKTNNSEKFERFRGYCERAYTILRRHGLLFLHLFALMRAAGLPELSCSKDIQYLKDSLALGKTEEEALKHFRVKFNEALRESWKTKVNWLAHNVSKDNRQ
T2 sequence (P27986 whole entry partner): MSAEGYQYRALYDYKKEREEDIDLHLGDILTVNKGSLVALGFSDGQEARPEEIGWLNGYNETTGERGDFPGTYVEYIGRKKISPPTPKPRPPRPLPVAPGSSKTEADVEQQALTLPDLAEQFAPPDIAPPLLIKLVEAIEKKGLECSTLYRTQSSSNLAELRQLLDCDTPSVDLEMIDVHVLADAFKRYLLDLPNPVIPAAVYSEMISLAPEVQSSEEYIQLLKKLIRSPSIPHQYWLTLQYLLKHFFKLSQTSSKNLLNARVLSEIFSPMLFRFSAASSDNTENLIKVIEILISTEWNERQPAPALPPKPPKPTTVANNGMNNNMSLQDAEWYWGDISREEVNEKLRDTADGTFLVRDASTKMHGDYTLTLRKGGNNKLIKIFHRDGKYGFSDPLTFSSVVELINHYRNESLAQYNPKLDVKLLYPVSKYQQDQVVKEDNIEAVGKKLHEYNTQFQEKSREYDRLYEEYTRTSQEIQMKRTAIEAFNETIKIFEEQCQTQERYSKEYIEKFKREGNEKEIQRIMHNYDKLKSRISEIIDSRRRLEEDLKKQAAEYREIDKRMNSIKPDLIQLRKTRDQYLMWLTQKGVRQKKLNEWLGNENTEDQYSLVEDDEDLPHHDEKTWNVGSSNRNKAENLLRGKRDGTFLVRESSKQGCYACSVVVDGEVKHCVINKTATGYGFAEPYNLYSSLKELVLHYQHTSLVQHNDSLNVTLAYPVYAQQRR
T1 sequence (P42338 whole entry): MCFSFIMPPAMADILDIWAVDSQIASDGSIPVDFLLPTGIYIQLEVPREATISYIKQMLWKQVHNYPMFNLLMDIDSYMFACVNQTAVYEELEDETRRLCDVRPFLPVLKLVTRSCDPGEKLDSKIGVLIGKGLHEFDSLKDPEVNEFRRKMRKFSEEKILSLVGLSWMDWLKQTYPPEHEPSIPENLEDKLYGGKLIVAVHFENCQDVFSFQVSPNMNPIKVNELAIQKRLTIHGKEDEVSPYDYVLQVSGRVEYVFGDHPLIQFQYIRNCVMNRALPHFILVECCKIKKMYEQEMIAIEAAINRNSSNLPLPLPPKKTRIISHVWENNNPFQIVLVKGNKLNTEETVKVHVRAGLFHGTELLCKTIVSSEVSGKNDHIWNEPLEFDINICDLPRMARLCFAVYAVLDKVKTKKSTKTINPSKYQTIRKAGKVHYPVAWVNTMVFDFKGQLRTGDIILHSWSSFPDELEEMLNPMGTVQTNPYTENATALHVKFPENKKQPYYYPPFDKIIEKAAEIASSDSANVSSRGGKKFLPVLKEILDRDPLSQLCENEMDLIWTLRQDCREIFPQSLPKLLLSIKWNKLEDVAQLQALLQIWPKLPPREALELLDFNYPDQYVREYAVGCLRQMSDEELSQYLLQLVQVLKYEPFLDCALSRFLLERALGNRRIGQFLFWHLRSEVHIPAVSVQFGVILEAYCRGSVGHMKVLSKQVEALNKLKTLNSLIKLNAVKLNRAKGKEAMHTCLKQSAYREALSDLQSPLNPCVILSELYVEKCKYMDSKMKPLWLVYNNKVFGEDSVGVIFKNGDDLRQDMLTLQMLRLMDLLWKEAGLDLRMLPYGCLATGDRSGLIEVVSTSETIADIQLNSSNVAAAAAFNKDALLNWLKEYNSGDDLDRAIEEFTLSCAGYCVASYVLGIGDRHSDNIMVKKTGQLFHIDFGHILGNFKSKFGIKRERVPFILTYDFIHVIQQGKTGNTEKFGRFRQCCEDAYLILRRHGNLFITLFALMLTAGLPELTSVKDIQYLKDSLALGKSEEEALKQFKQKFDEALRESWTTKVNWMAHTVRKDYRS
T1 sequence (P27986 whole entry partner): as the sequence (P27986 whole entry partner) above

`Cc1n[nH]cc1-n1c([C@H](C)Nc2nc(N)nc(N)c2Cl)nc2c(Cl)ccc(Cl)c2c1=O` [Compound 218, (S)-5,8-dichloro-2-(1-((2,6-diamino-5-chloropyrimidin-4-yl)amino)ethyl)-3-(3-methyl-1H-pyrazol-4-yl)quinazolin-4(3H)-one]: the IC50 is 210 nM at PI3Kβ, 20 nM against PI3Kδ and more than 10000 nM at PI3Kγ.

For the compound `Cc1n[nH]cc1-n1c([C@H](C)Nc2nc(N)nc(N)c2C#N)nc2c(Cl)ccc(Cl)c2c1=O` [Compound 219, (S)-2,4-diamino-6-((1-(5,8-dichloro-3-(3-methyl-1H-pyrazol-4-yl)-4-oxo-3,4-dihydroquinazolin-2-yl)ethyl)amino)pyrimidine-5-carbonitrile], the values for the IC50 against PI3Kβ, at PI3Kδ and on PI3Kγ were 6 nM, 1 nM and 420 nM, respectively.

With `Cc1n[nH]cc1-n1c([C@@H](Nc2nc(N)nc(N)c2C#N)C2CC2)nc2c(Cl)cc(F)cc2c1=O` [Compound 220, (S)-2,4-diamino-6-(((8-chloro-6-fluoro-3-(3-methyl-1H-pyrazol-4-yl)-4-oxo-3,4-dihydroquinazolin-2-yl)(cyclopropyl)methyl)amino)pyrimidine-5-carbonitrile], the IC50 at PI3Kβ worked out at 42 nM; on PI3Kδ it was 7 nM; on PI3Kγ, 2200 nM.

Regarding `Cc1n[nH]cc1-n1c([C@@H](Nc2nc(N)nc(N)c2Cl)C2CC2)nc2c(Cl)cc(F)cc2c1=O` [Compound 221, (S)-8-chloro-2-(cyclopropyl((2,6-diamino-5-chloropyrimidin-4-yl)amino)methyl)-6-fluoro-3-(3-methyl-1H-pyrazol-4-yl)quinazolin-4(3H)-one], the IC50 was 1100 nM against PI3Kβ, 180 nM against PI3Kδ and more than 10000 nM on PI3Kγ.

With `Cc1ccc(Cl)c2nc([C@H](C)Nc3nc(N)nc(N)c3C#N)n(-c3cc[nH]n3)c(=O)c12` [Compound 222, (S)-2,4-diamino-6-((1-(8-chloro-5-methyl-4-oxo-3-(1H-pyrazol-3-yl)-3,4-dihydroquinazolin-2-yl)ethyl)amino)pyrimidine-5-carbonitrile], the figures for the IC50 against PI3Kβ, against PI3Kδ and at PI3Kγ were 0.6 nM, 0.2 nM and 360 nM, respectively.

Turning to `Cc1ccc(Cl)c2nc([C@H](C)Nc3nc(N)nc(N)c3Cl)n(-c3cc[nH]n3)c(=O)c12` [Compound 223, (S)-8-chloro-2-(1-((2,6-diamino-5-chloropyrimidin-4-yl)amino)ethyl)-5-methyl-3-(1H-pyrazol-3-yl)quinazolin-4(3H)-one], the results for the IC50 against PI3Kβ, on PI3Kδ and on PI3Kγ were 3 nM, 3 nM and 9400 nM, respectively.

Regarding `Cc1ccc(Cl)c2nc([C@H](C)Nc3nc(N)nc(C(F)F)c3C#N)n(-c3cc[nH]n3)c(=O)c12` [Compound 224, (S)-2-amino-4-((1-(8-chloro-5-methyl-4-oxo-3-(1H-pyrazol-3-yl)-3,4-dihydroquinazolin-2-yl)ethyl)amino)-6-(difluoromethyl)pyrimidine-5-carbonitrile], the IC50 at PI3Kβ was 5 nM; at PI3Kδ, 2 nM; on PI3Kγ, 2100 nM.

For `C[C@H](Nc1nc(N)nc(C(F)F)c1Cl)c1nc2cccc(Cl)c2c(=O)n1-c1cc[nH]n1` [Compound 225, (S)-2-(1-((2-amino-5-chloro-6-(difluoromethyl)pyrimidin-4-yl)amino)ethyl)-5-chloro-3-(1H-pyrazol-3-yl)quinazolin-4(3H)-one], the figures for the IC50 against PI3Kβ, at PI3Kδ and on PI3Kγ were 537 nM, 300 nM and more than 10000 nM, respectively.

In the case of `C[C@H](Nc1nc(N)nc(C(F)F)c1Cl)c1nc2c(Cl)cc(F)cc2c(=O)n1-c1cc[nH]n1` [Compound 226, (S)-2-(1-((2-amino-5-chloro-6-(difluoromethyl)pyrimidin-4-yl)amino)ethyl)-8-chloro-6-fluoro-3-(1H-pyrazol-3-yl)quinazolin-4(3H)-one], the IC50 against PI3Kβ is 628 nM; on PI3Kδ, 270 nM; at PI3Kγ it was more than 10000 nM.

Turning to `C[C@H](Nc1nc(N)nc(N)c1Cl)c1nc2c(Cl)ccc(C(F)F)c2c(=O)n1-c1cc[nH]n1` [Compound 227, (S)-8-chloro-2-(1-((2,6-diamino-5-chloropyrimidin-4-yl)amino)ethyl)-5-(difluoromethyl)-3-(1H-pyrazol-3-yl)quinazolin-4(3H)-one], the IC50 on PI3Kβ turned out to be 9 nM; on PI3Kδ, 8 nM; on PI3Kγ, 5000 nM.

As to `C[C@H](Nc1nc(N)nc(N)c1C#N)c1nc2c(Cl)ccc(C(F)F)c2c(=O)n1-c1cc[nH]n1` [Compound 228, (S)-2,4-diamino-6-((1-(8-chloro-5-(difluoromethyl)-4-oxo-3-(1H-pyrazol-3-yl)-3,4-dihydroquinazolin-2-yl)ethyl)amino)pyrimidine-5-carbonitrile], the results for the IC50 at PI3Kβ, on PI3Kδ and on PI3Kγ were 1 nM, 0.6 nM and 870 nM, respectively.

Take `C[C@H](Nc1nc(N)nc(N)c1Cl)c1nc2ccc(Cl)c(C(F)F)c2c(=O)n1-c1cc[nH]n1` [Compound 229, (S)-6-chloro-2-(1-((2,6-diamino-5-chloropyrimidin-4-yl)amino)ethyl)-5-(difluoromethyl)-3-(1H-pyrazol-3-yl)quinazolin-4(3H)-one]: the IC50 on PI3Kβ is 85 nM; on PI3Kδ, 49 nM; at PI3Kγ, 5000 nM.

As to `C[C@H](Nc1nc(N)nc(N)c1C#N)c1nc2ccc(Cl)c(C(F)F)c2c(=O)n1-c1cc[nH]n1` [Compound 230, (S)-2,4-diamino-6-((1-(6-chloro-5-(difluoromethyl)-4-oxo-3-(1H-pyrazol-3-yl)-3,4-dihydroquinazolin-2-yl)ethyl)amino)pyrimidine-5-carbonitrile], the IC50 against PI3Kβ turned out to be 7 nM; at PI3Kδ it was 6 nM; on PI3Kγ, 1800 nM.

For the compound `C[C@H](Nc1nc(N)nc(N)c1C#N)c1nc2c(F)c(F)ccc2c(=O)n1-c1cc[nH]n1` [Compound 231, (S)-2,4-diamino-6-((1-(7,8-difluoro-4-oxo-3-(1H-pyrazol-3-yl)-3,4-dihydroquinazolin-2-yl)ethyl)amino)pyrimidine-5-carbonitrile], the IC50 against PI3Kβ stood at 13 nM; against PI3Kδ it was 12 nM; on PI3Kγ it was 6100 nM.

For `C[C@H](Nc1nc(N)nc(N)c1Cl)c1nc2c(F)c(F)ccc2c(=O)n1-c1cc[nH]n1` [Compound 232, (S)-2-(1-((2,6-diamino-5-chloropyrimidin-4-yl)amino)ethyl)-7,8-difluoro-3-(1H-pyrazol-3-yl)quinazolin-4(3H)-one], the IC50 on PI3Kβ is 260 nM; against PI3Kδ, 190 nM; on PI3Kγ it was more than 10000 nM.

Take `C[C@H](Nc1nc(N)nc(N)c1C#N)c1nc2cc(F)cc(F)c2c(=O)n1-c1cc[nH]n1` [Compound 235, (S)-2,4-diamino-6-((1-(5,7-difluoro-4-oxo-3-(1H-pyrazol-3-yl)-3,4-dihydroquinazolin-2-yl)ethyl)amino)pyrimidine-5-carbonitrile]: the IC50 at PI3Kβ is 11 nM; at PI3Kδ it was 12 nM; at PI3Kγ, 9600 nM.

Consider `C[C@H](Nc1nc(N)nc(N)c1Cl)c1nc2cc(F)cc(F)c2c(=O)n1-c1cc[nH]n1` [Compound 236, (S)-2-(1-((2,6-diamino-5-chloropyrimidin-4-yl)amino)ethyl)-5,7-difluoro-3-(1H-pyrazol-3-yl)quinazolin-4(3H)-one], for which the IC50 against PI3Kβ is 120 nM; against PI3Kδ, 120 nM; on PI3Kγ, more than 10000 nM.
